Source: patent publication US20230143612A1 (Arbutus Biopharma Corporation, priority 2020, published 2023)

Target: PD-L1 His protein / PD-1 Fc protein (Homo sapiens, UniProt Q9NZQ7)
Experiment: HTRF Assay (PD-1/PD-L1 interaction)
Type: binding
Conditions: PD-L1 His 6 nM, PD-1 Fc 6 nM
Summary of the method: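 HTRF: PD-L1 His (6 nM final), compound (3-fold dilutions, 20 μM to 0.001 μM final) and PD-1 Fc (6 nM final) preincubated 15 min at room temperature. Anti-human IgG-XL665 and anti-6HIS Tb cryptate (mixed at 6.7 nM and 0.35 nM) then added for 1 h at room temperature before reading.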

Sequence of PD-L1 His protein / PD-1 Fc protein (Q9NZQ7 19-238 limits assumed): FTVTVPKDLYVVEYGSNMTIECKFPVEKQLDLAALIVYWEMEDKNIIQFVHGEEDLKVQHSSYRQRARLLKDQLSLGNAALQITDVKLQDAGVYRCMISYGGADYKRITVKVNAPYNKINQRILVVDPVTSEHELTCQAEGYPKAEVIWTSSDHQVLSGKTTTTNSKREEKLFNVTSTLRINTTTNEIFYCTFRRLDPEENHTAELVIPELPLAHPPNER

## COc1nc(-c2cccc(-c3cccc(-c4cn5c(CNC[C@@H]6CCC(=O)N6)cnc5cn4)c3Cl)c2Cl)ccc1CNC[C@@H]1CCC(=O)N1 [Example 309, (S)-5-((((6-(2,2′-Dichloro-3′-(3-(((((S)-5-oxopyrrolidin-2-yl)methyl)amino)methyl)imidazo[1,2-a]pyrazin-6-yl)-[1,1′-biphenyl]-3-yl)-2-methoxypyridin-3-yl)methyl)amino)methyl)pyrrolidin-2-one]
  IC50: 0.3 nM

## COc1nc(-c2cccc(-c3cccc(-c4cnc5c(CNC[C@@H]6CCC(=O)N6)cnn5c4)c3Cl)c2Cl)ccc1CNC[C@@H]1CCC(=O)N1 [Example 310, (S)-5-((((6-(2,2′-Dichloro-3′-(3-(((((S)-5-oxopyrrolidin-2-yl)methyl)amino)methyl)pyrazolo[1,5-a]pyrimidin-6-yl)-[1,1′-biphenyl]-3-yl)-2-methoxypyridin-3-yl)methyl)amino)methyl)pyrrolidin-2-one]
  IC50: 0.2 nM

## COc1nc(-c2cccc(-c3cccc(-c4cnc5cc(CNC[C@@H]6CCC(=O)N6)oc5c4)c3Cl)c2Cl)ccc1CNC[C@@H]1CCC(=O)N1 [Example 311, (S)-5-((((6-(2,2′-Dichloro-3′-(2-(((((S)-5-oxopyrrolidin-2-yl)methyl)amino)methyl)furo[3,2-b]pyridin-6-yl)-[1,1′-biphenyl]-3-yl)-2-methoxypyridin-3-yl)methyl)amino)methyl)pyrrolidin-2-one]
  IC50: 5 nM

## COc1nc(-c2cccc(-c3cccc(-c4ccc5c(n4)nc(CNC[C@@H]4CCC(=O)N4)n5C)c3Cl)c2Cl)ccc1CNC[C@@H]1CCC(=O)N1 [Example 312, (S)-5-((((6-(2,2′-Dichloro-3′-(1-methyl-2-(((((S)-5-oxopyrrolidin-2-yl)methyl)amino)methyl)-1H-imidazo[4,5-b]pyridin-5-yl)-[1,1′-biphenyl]-3-yl)-2-methoxypyridin-3-yl)methyl)amino)methyl)pyrrolidin-2-one]
  IC50: 0.1 nM

## COc1nc(-c2cccc(-c3cccc(-c4ccc5c(n4)nc(CN[C@H]4C[C@H](O)C4)n5C)c3Cl)c2Cl)ccc1CN[C@H]1C[C@H](O)C1 [Example 313, (1r,3r)-3-(((6-(2,2′-Dichloro-3′-(2-((((1r,3r)-3-hydroxycyclobutyl)amino)methyl)-1-methyl-1H-imidazo[4,5-b]pyridin-5-yl)-[1,1′-biphenyl]-3-yl)-2-methoxypyridin-3-yl)methyl)amino)cyclobutan-1-ol]
  IC50: 1.9 nM

## COc1nc(-c2cccc(-c3cccc(-c4ccc5nc(CNC[C@@H]6CCC(=O)N6)n(C)c5n4)c3Cl)c2Cl)ccc1CNC[C@@H]1CCC(=O)N1 [Example 314, (S)-5-((((6-(2,2′-Dichloro-3′-(3-methyl-2-(((((S)-5-oxopyrrolidin-2-yl)methyl)amino)methyl)-3H-imidazo[4,5-b]pyridin-5-yl)-[1,1′-biphenyl]-3-yl)-2-methoxypyridin-3-yl)methyl)amino)methyl)pyrrolidin-2-one]
  IC50: 3.9 nM

## COc1nc(-c2cccc(-c3cccc(-c4ccc5nc(CN[C@H]6C[C@H](O)C6)n(C)c5n4)c3Cl)c2Cl)ccc1CN[C@H]1C[C@H](O)C1 [Example 315]
  IC50: 0.4 nM

## COc1nc(-c2cccc(-c3cccc(-c4ccn5c(=O)c(CNCCCO)cnc5c4)c3Cl)c2Cl)ccc1CNC[C@@H]1CCC(=O)N1 [Example 316, (S)-8-(2,2′-Dichloro-3′-(6-methoxy-5-((((5-oxopyrrolidin-2-yl)methyl)-amino)methyl)-pyridin-2-yl)-[1,1′-biphenyl]-3-yl)-3-(((3-hydroxypropyl)amino)methyl)-4H-pyrido[1,2-a]pyrimidin-4-one]
  IC50: 0.3 nM

## COc1nc(-c2cccc(-c3cccc(-c4ccn5c(=O)c(CN(C)CCCO)cnc5c4)c3Cl)c2Cl)ccc1CNC[C@@H]1CCC(=O)N1 [Example 317, (S)-8-(2,2′-Dichloro-3′-(6-methoxy-5-((((5-oxopyrrolidin-2-yl)methyl)amino)methyl)pyridin-2-yl)-[1,1′-biphenyl]-3-yl)-3-(((3-hydroxypropyl)(methyl)amino)methyl)-4H-pyrido[1,2-a]pyrimidin-4-one]
  IC50: 0.2 nM

## COc1nc(-c2cccc(-c3cccc(-c4ccn5c(=O)c(CN(C)[C@H]6C[C@](C)(O)C6)cnc5c4)c3Cl)c2Cl)ccc1CNC[C@@H]1CCC(=O)N1 [Example 318, 8-(2,2′-Dichloro-3′-(6-methoxy-5-(((((S)-5-oxopyrrolidin-2-yl)methyl)-amino)-methyl)-pyridin-2-yl)-[1,1′-biphenyl]-3-yl)-3-((((1r,3r)-3-hydroxy-3-methylcyclobutyl)(methyl)amino)methyl)-4H-pyrido[1,2-a]pyrimidin-4-one]
  IC50: 0.1 nM

## COc1nc(-c2cccc(-c3cccc(-c4ccn5c(=O)c(CN(C)C[C@H](C)O)cnc5c4)c3Cl)c2Cl)ccc1CNC[C@@H]1CCC(=O)N1 [Example 319, 8-[2-Chloro-3-[2-chloro-3-[6-methoxy-5-[[[(2S)-5-oxopyrrolidin-2-yl]methylamino]methyl]-2-pyridyl]phenyl]phenyl]-3-[[[(2S)-2-hydroxypropyl]-methyl-amino]methyl]pyrido[1,2-a]pyrimidin-4-one]
  IC50: 0.1 nM

## COc1nc(-c2cccc(-c3cccc(-c4ccn5c(=O)c(CNCCN6CCCC6=O)cnc5c4)c3Cl)c2Cl)ccc1CNCCN1CCCC1=O [Example 321, 8-[2-Chloro-3-[2-chloro-3-[6-methoxy-5-[[2-(2-oxopyrrolidin-1-yl)ethylamino]methyl]-2-pyridyl]phenyl]phenyl]-3-[[2-(2-oxopyrrolidin-1-yl)ethylamino]methyl]pyrido[1,2-a]pyrimidin-4-one]
  IC50: 0.2 nM

## COc1nc(-c2cccc(-c3cccc(-c4ccn5c(=O)c(CNC6CCN(C(C)=O)CC6)cnc5c4)c3Cl)c2Cl)ccc1CNC1CCN(C(C)=O)CC1 [Example 322, 3-[[(1-Acetyl-4-piperidyl)amino]methyl]-8-[3-[3-[5-[[(1-acetyl-4-piperidyl)amino]methyl]-6-methoxy-2-pyridyl]-2-chloro-phenyl]-2-chloro-phenyl]pyrido[1,2-a]pyrimidin-4-one]
  IC50: 0.1 nM

## COc1nc(-c2cccc(-c3cccc(-c4cc(C)n5c(=O)c(C6=NCC(O)CN6)cnc5c4)c3Cl)c2Cl)ccc1CNC[C@@H]1CCC(=O)N1 (stereo partly drawn) [Example 323, 8-(2,2′-Dichloro-3′-(6-methoxy-5-(((((S)-5-oxopyrrolidin-2-yl)methyl)amino)methyl)pyridin-2-yl)-[1,1′-biphenyl]-3-yl)-3-(5-hydroxy-1,4,5,6-tetrahydropyrimidin-2-yl)-6-methyl-4H-pyrido[1,2-a]pyrimidin-4-one]
  IC50: 5.9 nM

## COc1nc(-c2cccc(-c3cccc(-c4ccc5nc(CNC[C@H](C)O)cc(=O)n5c4)c3Cl)c2Cl)ccc1CNC[C@@H]1CCC(=O)N1 [Example 324, 7-(2,2′-Dichloro-3′-(6-methoxy-5-(((((S)-5-oxopyrrolidin-2-yl)methyl)amino)methyl)pyridin-2-yl)-[1,1′-biphenyl]-3-yl)-2-((((S)-2-hydroxypropyl)amino)methyl)-4H-pyrido[1,2-a]pyrimidin-4-one]
  IC50: 5.7 nM

## COc1nc(-c2cccc(-c3cccc(-c4ccc5nc(CN[C@H]6C[C@](C)(O)C6)cc(=O)n5c4)c3Cl)c2Cl)ccc1CNC[C@@H]1CCC(=O)N1 [Example 325, 7-(2,2′-dichloro-3′-(6-methoxy-5-(((((S)-5-oxopyrrolidin-2-yl)methyl)amino)methyl)pyridin-2-yl)-[1,1′-biphenyl]-3-yl)-2-((((1r,3r)-3-hydroxy-3-methylcyclobutyl)amino)methyl)-4H-pyrido[1,2-a]pyrimidin-4-one]
  IC50: 0.1 nM

## COc1nc(-c2cccc(-c3cccc(-c4ccn5c(=O)c(CN6CCNC(=O)CC6)cnc5c4)c3Cl)c2Cl)ccc1CNC[C@@H]1CCC(=O)N1 [Example 327, (S)-8-(2,2′-Dichloro-3′-(6-methoxy-5-((((5-oxopyrrolidin-2-yl)methyl)-amino)methyl)-pyridin-2-yl)-[1,1′-biphenyl]-3-yl)-3-((5-oxo-1,4-diazepan-1-yl)methyl)-4H-pyrido[1,2-a]pyrimidin-4-one]
  IC50: 0.1 nM

## COc1nc(-c2cccc(-c3cccc(-c4ccn5c(=O)c(CN6CCC(CO)(CO)C6)cnc5c4)c3Cl)c2Cl)ccc1CNC[C@@H]1CCC(=O)N1 [Example 328, (S)-3-((3,3-Bis(hydroxymethyl)pyrrolidin-1-yl)methyl)-8-(2,2′-dichloro-3′-(6-methoxy-5-((((5-oxopyrrolidin-2-yl)methyl)amino)methyl)pyridin-2-yl)-[1,1′-biphenyl]-3-yl)-4H-pyrido[1,2-a]pyrimidin-4-one]
  IC50: 0.1 nM

## COc1nc(-c2cccc(-c3cccc(-c4ccn5c(=O)c(CN6CC7(C6)CN(C(C)=O)C7)cnc5c4)c3Cl)c2Cl)ccc1CNC[C@@H]1CCC(=O)N1 [Example 329, (S)-3-((6-Acetyl-2,6-diazaspiro[3.3]heptan-2-yl)methyl)-8-(2,2′-dichloro-3′-(6-methoxy-5-((((5-oxopyrrolidin-2-yl)methyl)amino)methyl)pyridin-2-yl)-[1,1′-biphenyl]-3-yl)-4H-pyrido[1,2-a]pyrimidin-4-one]
  IC50: 0.1 nM

## COc1nc(-c2cccc(-c3cccc(-c4ccc(CN(C=O)C[C@@H]5CCC(=O)N5)c(OC)n4)c3Cl)c2Cl)ccc1CNC[C@@H]1CCC(=O)N1 [Example 330, N-((6-(2,2′-Dichloro-3′-(6-methoxy-5-(((((S)-5-oxopyrrolidin-2-yl)methyl)amino)methyl)pyridin-2-yl)-[1,1′-biphenyl]-3-yl)-2-methoxypyridin-3-yl)methyl)-N—(((S)-5-oxopyrrolidin-2-yl)methyl)formamide]
  IC50: 0.8 nM

## COc1nc(-c2cccc(-c3cccc(-c4cc5c(=O)n(C)c(CNC[C@@H]6CCC(=O)N6)nn5c4)c3Cl)c2Cl)ccc1CNC[C@@H]1CCC(=O)N1 [Example 331, 6-(2,2′-Dichloro-3′-(6-methoxy-5-(((((S)-5-oxopyrrolidin-2-yl)methyl)amino)methyl)pyridin-2-yl)-[1,1′-biphenyl]-3-yl)-3-methyl-2-(((((S)-5-oxopyrrolidin-2-yl)methyl)amino)methyl)pyrrolo[2,1-f][1,2,4]triazin-4(3H)-one]
  IC50: 310 nM
